For 32 molecules, IC50 results are on record in patent US8372991B2, “Trisubstituted thiophenes that modulate intracellular calcium” (Calcimedica, Inc., priority 2008, dated 2013).

The test system of assay [1] is RBL-2H3 cells. As to the kind of experiment: Fluorescence-based assay of store-operated calcium entry in RBL-2H3 cells. Format: cell-based. The note with it: Rattus norvegicus, thapsigargin, 50% inhibition of Upslope. Here is the method:
B. Fluorescence-Based Assay of Store-Operated Calcium Entry in RBL-2H3 Cells.
RBL-2H3 cells were obtained from ATCC and maintained in complete medium with 10% FBS at 37° C./6% CO2.
(§1) The day prior to performing the assay, RBL-2H3 cells are plated in 50 μL of complete medium in a 384 well plate. Cells are grown at 37° C./6% CO2 overnight and grow to 50-60% confluence by the next day. On the assay day, 1.5 μM Fluo-4-AM dye (Invitrogen) in complete medium is added and incubated for 1 hour at RT. Cells are washed twice in Ca^2+-free HBSS buffer and 35 μL Ca^2+-free HBSS buffer is added to each well. 10 μL of a test compound prepared in a Ca^2+-free HBSS solution at 4.5× of the desired concentration is added to a well and incubated for 5 minutes at RT. 10 μL of thapsigargin prepared in a Ca^2+-free HBSS solution at 5.5× of the desired concentration (5.5 uM) is added to each well and incubated for an additional 25 minutes. The initial baseline fluorescence signal is measured with a FLIPR^384 (Molecular Devices) plate reader. 5 μL of 12× calcium in HBSS (12 mM) is added and changes in cellular fluorescence are measured with the FLIPR^384 plate reader. In each well, the change in the fluorescent signal as a function of time due to calcium entry into the cell is determined by calculating the difference between the fluorescent signal measured 7 seconds after calcium addition and the initial baseline fluorescence signal at time zero (t=0). This parameter is designated Upslope. The IC50 value is calculated as the concentration at which 50% of the Upslope is inhibited.

Assay [2] relates to JR251 or RBL cells. Description: Store-operated calcium entry IC50 in either JR251 or RBL cells. In kind it is cell-based. How it is done:
The day prior to performing the assay Orai1/STIM1 stable cells were plated in 50 μL of complete medium at 90-95% confluence in a 384 well plate. Cells were grown at 37° C./6% CO2 overnight. On the day of the assay, 1.5 μM fluo-4-AM (Invitrogen) in complete medium was added to the cells, which were then incubated for 1 hour at RT. Cells were washed once in Ca^2+-free HBSS (Hank's buffered saline solution) and 35 μl of Ca^2+-free HBSS was added to each well. Test compounds were added to wells in a 10 μL Ca^2+-free HBSS solution, prepared at 4.5× the desired final concentration, and incubated for 30 minutes at RT. The initial baseline fluorescence signal was then measured with a FLIPR^384 (Molecular Devices) plate reader. Calcium entry was initiated by adding 5 μl of 10× CaCl2 (10 mM) in HBSS, and changes in cellular fluorescence were measured with the FLIPR^384 plate reader. In each well, the magnitude of the fluorescence signal as a result of calcium entry into the cell was determined by calculating the difference between the peak fluorescence signal measured after calcium addition and the initial baseline fluorescence signal (designated Peak-Basal). IC50 values were typically calculated as the concentration that inhibited 50% of the Peak-Basal signal (Table A).
as §1

Each structure is given as a SMILES string.

On to `Cc1ccc(-c2csc(NC(=O)c3cccc(F)c3)c2C(=O)O)s1` [A], for which the IC50 in assay [1] lay in the range of 1 to 10 µM. On the same count and under the same terms, to `O=C(Nc1scc(-c2ccc(Cl)s2)c1C(=O)O)c1cc2ccccc2o1` [B] belongs at most 0.5 µM; to `O=C(Nc1scc(-c2nc3ccccc3n2C(F)F)c1C(=O)O)c1cc2ccccc2o1` [Compound I], 1 to 10 µM; to `COc1ccc(-c2csc(NC(=O)c3cccc(F)c3)c2C(=O)O)cn1` [D], 1 to 10 µM. The same measure, in the same setting: for `Cc1csc(-c2csc(NC(=O)c3cccc(F)c3)c2C(=O)O)n1` [C] the value was 1 to 10 µM; for `O=C(Nc1scc(-c2c[nH]c3ccccc23)c1C(=O)O)c1cccc(F)c1` [H], 1 to 10 µM. Consider `Cc1nc(N2CCCCC2)ncc1-c1csc(NC(=O)c2ccnnc2)c1C(=O)O` [4-(4-methyl-2-(piperidin-1-yl)pyrimidin-5-yl)-2-(pyridazine-4-carboxamido)thiophene-3-carboxylic acid], for which, in assay [2], the IC50 is below 10 µM. As for `O=C(Nc1scc(-c2c[nH]c3ccccc23)c1C(=O)O)c1cc2ccccc2o1` [2-(benzofuran-2-carboxamido)-4-(1H-indol-3-yl)thiophene-3-carboxylic acid], in assay [2], the IC50 was below 10 µM. As for `O=C(Nc1scc(-c2cnn(-c3ccc(Cl)cc3)c2)c1C(=O)O)c1cnccn1` [4-(1-(4-chlorophenyl)-1H-pyrazol-4-yl)-2-(pyrazine-2-carboxamido)thiophene-3-carboxylic acid], the IC50 in assay [2] was below 10 µM.

As to `O=C(Nc1scc(-c2ccc3nonc3c2)c1C(=O)O)c1cc2ccccc2o1` [4-(benzo[c][1,2,5]oxadiazol-5-yl)-2-(benzofuran-2-carboxamido)thiophene-3-carboxylic acid], in assay [2], the IC50 was below 10 µM. Same read-out and setting: for `O=C(Nc1scc(-c2ncco2)c1C(=O)O)c1ccc(F)cc1` [2-(4-fluorobenzamido)-4-(oxazol-2-yl)thiophene-3-carboxylic acid] the value was below 10 µM; for `Cc1nc(N2CCCCC2)ncc1-c1csc(NC(=O)c2cnn(C)c2Cl)c1C(=O)O` [2-(5-chloro-1-methyl-1H-pyrazole-4-carboxamido)-4-(4-methyl-2-(piperidin-1-yl)pyrimidin-5-yl)thiophene-3-carboxylic acid], below 10 µM; for `Cc1nc(N2CCCCC2)ncc1-c1csc(NC(=O)c2cnccn2)c1C(=O)O` [4-(4-methyl-2-(piperidin-1-yl)pyrimidin-5-yl)-2-(pyrazine-2-carboxamido)thiophene-3-carboxylic acid], below 10 µM. In the case of `Cc1ccc(-c2csc(NC(=O)c3cc4ccccc4o3)c2C(=O)O)cn1` [2-(benzofuran-2-carboxamido)-4-(6-methylpyridin-3-yl)thiophene-3-carboxylic acid], the IC50 in assay [2] was below 10 µM. On to `O=C(Nc1scc(-c2ccc3ccccc3c2)c1C(=O)O)c1nc2ccccc2o1` [2-(benzo[d]oxazole-2-carboxamido)-4-(naphthalen-2-yl)thiophene-3-carboxylic acid], for which the IC50 in assay [2] was below 10 µM. On to `Cc1nc(C)c(-c2csc(NC(=O)c3cc4ccccc4o3)c2C(=O)O)s1` [2-(benzofuran-2-carboxamido)-4-(2,4-dimethylthiazol-5-yl)thiophene-3-carboxylic acid], for which the IC50 in assay [2] is below 10 µM.

Consider `O=C(Nc1scc(-c2ccc(Cl)nc2)c1C(=O)O)c1cccc(F)c1` [4-(6-chloropyridin-3-yl)-2-(3-fluorobenzamido)thiophene-3-carboxylic acid], for which the concentration for half-maximal inhibition (IC50) in assay [2] is below 10 µM. Take `Cc1cc(-c2csc(NC(=O)c3snnc3C)c2C(=O)O)n(C)n1` [4-(1,3-dimethyl-1H-pyrazol-5-yl)-2-(4-methyl-1,2,3-thiadiazole-5-carboxamido)thiophene-3-carboxylic acid]: in assay [2], the IC50 is below 10 µM. On to `Cc1nnsc1C(=O)Nc1scc(-c2cnccn2)c1C(=O)O` [2-(4-methyl-1,2,3-thiadiazole-5-carboxamido)-4-(pyrazin-2-yl)thiophene-3-carboxylic acid], for which the IC50 in assay [2] was below 10 µM. Turning to `O=C(Nc1scc(-c2cccs2)c1C(=O)O)c1ccc(F)cc1` [5′-(4-fluorobenzamido)-2,3′-bithiophene-4′-carboxylic acid], the IC50 in assay [2] is below 10 µM. Still for that read-out and setting: to `O=C(Nc1scc(-c2ccc3nccnc3c2)c1C(=O)O)c1cc2ccccc2o1` [2-(benzofuran-2-carboxamido)-4-(quinoxalin-6-yl)thiophene-3-carboxylic acid] belongs below 10 µM. `Cc1nnsc1C(=O)Nc1scc(-c2c(C)nn(-c3ccccc3)c2C)c1C(=O)O` [4-(3,5-dimethyl-1-phenyl-1H-pyrazol-4-yl)-2-(4-methyl-1,2,3-thiadiazole-5-carboxamido)thiophene-3-carboxylic acid]: the IC50 in assay [2] is below 10 µM.

Regarding `COc1ccc(-c2csc(NC(=O)c3cc4ccccc4o3)c2C(=O)O)cn1` [E], the IC50 in assay [1] was in the range of 1 to 10 µM. For `Cc1ccc(-c2csc(NC(=O)c3nc4ccccc4o3)c2C(=O)O)c2ccccc12` [2-(benzo[d]oxazole-2-carboxamido)-4-(4-methylnaphthalen-1-yl)thiophene-3-carboxylic acid], the IC50 in assay [2] is below 10 µM.

For `Cc1ccc(-c2csc(NC(=O)c3cc4ccccc4o3)c2C(=O)O)s1` [5′-(benzofuran-2-carboxamido)-5-methyl-2,3′-bithiophene-4′-carboxylic acid], the half-maximal inhibitory concentration (IC50) in assay [2] is below 10 µM. For `O=C(Nc1scc(-c2ccc3scnc3c2)c1C(=O)O)c1cc2ccccc2o1` [4-(benzo[d]thiazol-5-yl)-2-(benzofuran-2-carboxamido)thiophene-3-carboxylic acid], the IC50 in assay [2] was below 10 µM.

Consider `O=C(Nc1scc(-c2cnn(-c3ccc(Cl)cc3)c2)c1C(=O)O)c1ccnnc1` [4-(1-(4-chlorophenyl)-1H-pyrazol-4-yl)-2-(pyridazine-4-carboxamido)thiophene-3-carboxylic acid], for which the IC50 in assay [2] is below 10 µM. Regarding `Cn1ccc2cc(-c3csc(NC(=O)c4cc5ccccc5o4)c3C(=O)O)ccc21` [2-(benzofuran-2-carboxamido)-4-(1-methyl-1H-indol-5-yl)thiophene-3-carboxylic acid], the IC50 in assay [2] is below 10 µM. As to `Cc1csc(-c2csc(NC(=O)c3cc4ccccc4o3)c2C(=O)O)n1` [2-(benzofuran-2-carboxamido)-4-(4-methylthiazol-2-yl)thiophene-3-carboxylic acid], in assay [2], the IC50 is below 10 µM. Regarding `O=C(Nc1scc(-c2cnc(C(F)(F)F)nc2)c1C(=O)O)c1cc2ccccc2o1` [2-(benzofuran-2-carboxamido)-4-(2-(trifluoromethyl)pyrimidin-5-yl)thiophene-3-carboxylic acid], the 50% inhibitory concentration (IC50) in assay [2] is below 10 µM. With `Cc1csc(-c2csc(NC(=O)c3cccc(F)c3)c2C(=O)O)n1` [2-(3-fluorobenzamido)-4-(4-methylthiazol-2-yl)thiophene-3-carboxylic acid], the IC50 in assay [2] is below 10 µM. As for `COc1ccc(/C=C/C(=O)Nc2scc(-c3cccs3)c2C(=O)O)cc1OC` [(E)-5′-(3-(3,4-dimethoxyphenyl)acrylamido)-2,3′-bithiophene-4′-carboxylic acid], in assay [2], the IC50 is below 10 µM.

For orientation: IC50 means the concentration that inhibits the measured activity by half.
